# Reference: patent US20090318424A1, “NOVEL COMPOUNDS” (priority 2006, published 2009)
# Test system: influx of neutrophils to the lung in LPS-challenged rats
# Assay: Rat LPS neutrophilia model
# Format: in vivo
# Details: LPS aerosol 100 ug/ml 15 min, lavage 4 hours later; in at least one of the range of conditions tested
# Description: The effect of compounds on the influx of neutrophils to the lung in LPS-challenged rats is evaluated as follows. The test compound is suspended in one of the following solutions: 0.5% tween 80/PBS, 0.5% tween 80/saline, 10% EtOH/saline (with pH adjusted to 2.0, or 8.0 with HCl, or unadjusted), Saline @ pH 2.0, 6.5 or 8.0, 0.5% Tragacanth, 1% DMSO/20% Encapsin/Saline, or acidified 5% Tragacanth. The suspension process may be aided by the use of a glass homogenizer. For intratracheal administration, the animals are anesthetized with inhaled isoflurane and placed in a supine position, the trachea is intubated with a steel gavage needle (1.5 inch, 22 gauge, small ball) or a Penn-Century Microsprayer Aerosolizer (model IA-IB) and 200 ul of dosing solution is delivered. The animals are visually monitored during the recovery process, which typically occurs within two minutes.
# Rats treated with compound or vehicle (15 min-24 hours pretreatment) are exposed to an LPS aerosol (100 ug/ml) for 15 min. Four hours later the rats are euthanized with pentobarbital (100 mg/kg, i.p.) and the airways are lavaged with 5 washes of 5 ml of phosphate buffered saline. The harvested cells are stained (Diffquick) and counted to determine total and differential cell data. In a typical study, macrophages represent 40-70% of the total cells, and polymorphonuclear cells 30-60% of the total cells. Inhibition of neutrophil levels relative to no compound controls is calculated based on the differential counts.
# The assay has varying conditions, such as concentration, pretreat time, form of the compound (crystalline, amorphous, salts, micronised), and a wet or dry application of the compound. The data is obtained as % inhibition using a particular concentration and pretreat time.
row,Compound,inhibition of neutrophilia
1,"CSc1nc(-c2cc(NC(=O)c3ccsc3)ccc2C)c2c(n1)N(c1c(F)cccc1F)C(=O)NC2 [7(c), N-{3-[8-(2,6-Difluorophenyl)-2-(methylthio)-7-oxo-5,6,7,8-tetrahydropyrimido[4,5-d]pyrimidin-4-yl]-4-methylphenyl}-3-thiophenecarboxamide]",inactive
2,"Cc1ccc(C(=O)NC(C)C)cc1-c1nc(NCCCN(C)C)nc2c1CNC(=O)N2c1c(F)cccc1F [Example 40, 3-(8-(2,6-difluorophenyl)-2-{[3-(dimethylamino)propyl]amino}-7-oxo-5,6,7,8-tetrahydropyrimido[4,5-d]pyrimidin-4-yl)-4-methyl-N-(1-methylethyl)benzamide]",statistically significant inhibition

# Test system: not given
# Assay: not given
# Details: not given
row,Compound,melting point
1,"CNC(=O)c1ccc(C)c(-c2nc(NCCN(C)C)nc3c2CNC(=O)N3c2c(F)cccc2F)c1 [Example 163(c), 3-(8-(2,6-difluorophenyl)-2-{[2-(dimethylamino)ethyl]amino}-7-oxo-5,6,7,8-tetrahydropyrimido[4,5-d]pyrimidin-4-yl)-N,4-dimethylbenzamide]",155 to 158 °C (dec.)
2,"CCN(CC)C(=O)c1ccc(C)c(-c2nc(N(C)CCCN(C)C)nc3c2CNC(=O)N3c2c(F)cccc2F)c1 [Example 161, 3-{8-(2,6-difluorophenyl)-2-[[3-(dimethylamino)propyl](methyl)amino]-7-oxo-5,6,7,8-tetrahydropyrimido[4,5-d]pyrimidin-4-yl}-N,N-diethyl-4-methylbenzamide]",106 to 108 °C
3,"CCN(CC)C(=O)c1ccc(C)c(-c2nc(N3CCN(C)CC3)nc3c2CNC(=O)N3c2c(F)cccc2F)c1 [Example 162, 3-[8-(2,6-difluorophenyl)-2-(4-methyl-1-piperazinyl)-7-oxo-5,6,7,8-tetrahydropyrimido[4,5-d]pyrimidin-4-yl]-N,N-diethyl-4-methylbenzamide]",201 to 205 °C (dec.)
4,"CNC(=O)c1ccc(C)c(-c2nc(N3CCN(C)CC3)nc3c2CNC(=O)N3c2c(F)cccc2F)c1 [Example 169, 3-[8-(2,6-difluorophenyl)-2-(4-methyl-1-piperazinyl)-7-oxo-5,6,7,8-tetrahydropyrimido[4,5-d]pyrimidin-4-yl]-N,4-dimethylbenzamide]",164 to 168 °C (dec.)
5,"Cc1ccc(C(=O)N(C)C)cc1-c1nc(NC2CCN(C)CC2)nc2c1CNC(=O)N2c1c(F)cccc1F [Example 155, 3-{8-(2,6-difluorophenyl)-2-[(1-methyl-4-piperidinyl)amino]-7-oxo-5,6,7,8-tetrahydropyrimido[4,5-d]pyrimidin-4-yl}-N,N,4-trimethylbenzamide]",163 to 165 °C
6,"CNc1nc(-c2cc(NC(=O)c3ccsc3)ccc2C)c2c(n1)N(c1c(F)cccc1F)C(=O)NC2 [Example 14, N-{3-[8-(2,6-difluorophenyl)-2-(methylamino)-7-oxo-5,6,7,8-tetrahydropyrimido[4,5-d]pyrimidin-4-yl]-4-methylphenyl}-3-thiophenecarboxamide]",203 to 207 °C (dec.)
7,"Cc1ccc(NC(=O)c2ccsc2)cc1-c1nc(N(C)C)nc2c1CNC(=O)N2c1c(F)cccc1F [Example 12, N-{3-[8-(2,6-difluorophenyl)-2-(dimethylamino)-7-oxo-5,6,7,8-tetrahydropyrimido[4,5-d]pyrimidin-4-yl]-4-methylphenyl}-3-thiophenecarboxamide]",214 to 215 °C
8,"Cc1ccc(C(=O)NCc2ccccc2)cc1-c1nc(N2CCC(N)CC2)nc2c1CNC(=O)N2c1c(F)cccc1F [15(c), 3-[2-(4-Amino-1-piperidinyl)-8-(2,6-difluorophenyl)-7-oxo-5,6,7,8-tetrahydropyrimido[4,5-d]pyrimidin-4-yl]-4-methyl-N-(phenylmethyl)benzamide]",210 to 266 °C (dec.)
9,"CCOc1nc(-c2cc(NC(=O)c3ccsc3)ccc2C)c2c(n1)N(c1c(F)cccc1F)C(=O)NC2 [Example 13, N-{3-[8-(2,6-difluorophenyl)-2-(ethyloxy)-7-oxo-5,6,7,8-tetrahydropyrimido[4,5-d]pyrimidin-4-yl]-4-methylphenyl}-3-thiophenecarboxamide]",199 to 202 °C (dec.)
10,"Cc1ccc(C(=O)NCc2ccccc2)cc1-c1nc(N2CCC(N(C)C(=O)OC(C)(C)C)CC2)nc2c1CNC(=O)N2c1c(F)cccc1F [Example 147, 1,1-dimethylethyl {-[8-(2,6-difluorophenyl)-4-(2-methyl-5-{[(phenylmethyl)amino]carbonyl}phenyl)-7-oxo-5,6,7,8-tetrahydropyrimido[4,5-d]pyrimidin-2-yl]-4-piperidinyl}methylcarbamate]",146 to 150 °C (dec.)
11,"CNC(=O)c1ccc(C)c(-c2nc(NCCCNC(C)C)nc3c2CNC(=O)N3c2c(F)cccc2F)c1 [Example 168, 3-[8-(2,6-difluorophenyl)-2-({3-[(1-methylethyl)amino]propyl}amino)-7-oxo-5,6,7,8-tetrahydropyrimido[4,5-d]pyrimidin-4-yl]-N,4-dimethylbenzamide]",153 to 157 °C (dec.)
12,"Cc1ccc(C(=O)N(C)C)cc1-c1nc(NCCN(C)C)nc2c1CNC(=O)N2c1c(F)cccc1F [Example 152, 3-(8-(2,6-difluorophenyl)-2-{[2-(dimethylamino)ethyl]amino}-7-oxo-5,6,7,8-tetrahydropyrimido[4,5-d]pyrimidin-4-yl)-NN,4-trimethylbenzamide]",138 to 142 °C
13,"Cc1ccc(C(=O)N(C)C)cc1-c1nc(N(C)CCCN(C)C)nc2c1CNC(=O)N2c1c(F)cccc1F [Example 154, 3-{8-(2,6-difluorophenyl)-2-[[3-(dimethylamino)propyl](methyl)amino]-7-oxo-5,6,7,8-tetrahydropyrimido[4,5-d]pyrimidin-4-yl}-N,N,4-trimethylbenzamide]",114 to 118 °C
14,"CNC(=O)c1ccc(C)c(-c2nc(NCCCNC(C)(C)C)nc3c2CNC(=O)N3c2c(F)cccc2F)c1 [Example 170, 3-[8-(2,6-difluorophenyl)-2-({3-[(1,1-dimethylethyl)amino]propyl}amino)-7-oxo-5,6,7,8-tetrahydropyrimido[4,5-d]pyrimidin-4-yl]-N,4-dimethylbenzamide]",166 to 170 °C (dec.)
15,"CNC(=O)c1ccc(C)c(-c2nc(NC3CCN(C)CC3)nc3c2CNC(=O)N3c2c(F)cccc2F)c1 [Example 173, 3-{8-(2,6-difluorophenyl)-2-[(1-methyl-4-piperidinyl)amino]-7-oxo-5,6,7,8-tetrahydropyrimido[4,5-d]pyrimidin-4-yl}-N,4-dimethylbenzamide]",205 to 209 °C (dec.)
16,"CCN(CC)C(=O)c1ccc(C)c(-c2nc(NCCN(C)C)nc3c2CNC(=O)N3c2c(F)cccc2F)c1 [156(c), 3-(8-(2,6-difluorophenyl)-2-{[2-(dimethylamino)ethyl]amino}-7-oxo-5,6,7,8-tetrahydropyrimido[4,5-d]pyrimidin-4-yl)-N,N-diethyl-4-methylbenzamide]",125 to 127 °C
17,"Cc1ccc(C(=O)N(C)C)cc1-c1nc(N2CCN(C)CC2)nc2c1CNC(=O)N2c1c(F)cccc1F [149(c), 3-[8-(2,6-difluorophenyl)-2-(4-methyl-1-piperazinyl)-7-oxo-5,6,7,8-tetrahydropyrimido[4,5-d]pyrimidin-4-yl]-N,N,4-trimethylbenzamide]",159 to 162 °C
